{"source": "patent US6150414A", "about": "“Compositions and methods for treating viral infections” (priority 1992, dated 2000)", "key": {"[1]": {"test_system": "retroviruses", "test": "Comparison over two in vitro and one in vivo biological assays (Example 10)", "conditions": "Example 10", "outline": "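In vitro direct inactivation of retroviruses was tested alongside in vivo inhibition of Friend Leukemia Virus splenomegaly in mice. For the in vivo test, compounds were given intravenously 1-2 hours post infection.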"}, "[2]": {"molecular_target": "T1, Radiation Leukemia Virus reverse transcriptase (Radiation murine leukemia virus, UniProt P11227)", "T1 construct": "the reverse transcriptase of Radiation Leukemia Virus; endogenous in cells", "test": "Radiation Leukemia Virus reverse transcriptase assay, supernatants from infected AQR cells (Examples 4 and 9)", "format": "biochemical", "conditions": "Table VI; for CPM: replicate, listed as Hy", "outline": "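Supernatants from AQR cells chronically infected with RadLV were incubated 30 min on ice with the test compound (hypericin, protohypericin or HHA). Virus was pelleted at 100,000×g for 1 h at 4 °C, and the pellet was assayed for reverse transcriptase activity.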"}, "[3]": {"test_system": "virus budding in virus-producing cells", "test": "In vitro inhibition of virus budding: production of defective budded virions (Example 10)", "format": "cell-based", "conditions": "in vitro; Table IX; read-out: EC50 for production of defective budded virions", "from_the_text": "(§1) The results presented above in Table IX are presented as EC50 concentrations. These are the effective concentrations which inhibit 50% of the viruses in micromolar concentrations."}, "[4]": {"molecular_target": "T1, Radiation Leukemia Virus reverse transcriptase", "test": "Reverse transcriptase assay of Radiation Leukemia Virus from B10.T(6R) cell supernatants (Example 3)", "format": "biochemical", "conditions": "Table V; for CPM: replicate", "procedure": "Supernatants (10 ml/tube) from B10.T(6R) cells (Meruelo et al. J. Exp. Med. 147: 470-487, 1978) chronically infected with Radiation Leukemia Virus (RadLV) were obtained by centrifugation of cells in culture at 4° C., 3500 rpm for 15 minutes. The top 2/3 of the supernatant were removed and aliquots were incubated for 30 minutes on ice with the indicated amounts of hypericin or protohypericin. […] Thereafter, supernatants were centrifuged at 100,000×g using a TI70 rotor (Beckman Instruments) for 1 hour at 4° C. The pellet was […] and analyzed for reverse transcriptase activity as follows.\nThe reverse transcriptase assay was performed in a volume of 100 microliters containing the following components:\nThe reverse transcriptase assay provides a measure of the antiviral activity of the compounds tested by reference to the observed decrease in activity of this enzyme.\nIn Table V, \"CPM\" is \"counts per minute\", \"Average\" is the numerical average of CPM values within each group of animals."}, "[5]": {"test": "Antiviral activity of hypericin as a function of frequency of treatment in mouse studies", "format": "in vivo", "from_the_text": "The present inventors have also discovered that the antiviral activity of hypericin is a function of the frequency of treatment. […] While the foregoing observations in mice may not be applicable to other mammals or humans, those skilled in the art will appreciate that the frequency of treatment is subject to optimization, which can be determined by routine experimentation according to methods well known in the art, e.g. by establishing a matrix of dosage and frequency and assigning a group of experimental subjects to each point of the matrix. Design of this experiment should preferably also take into account the tissue accumulation properties of PAC compounds."}, "[6]": {"test_system": "Friend Leukemia Virus", "test": "In vivo inhibition of Friend Leukemia Virus splenomegaly, intravenous 1-2 hours post infection (Example 10)", "design": "species or system mice", "conditions": "Mus musculus, read-out: EC50 for FV-induced splenomegaly", "procedure": "(3) In vivo inhibition of Friend Leukemia Virus Splenomegaly performed as described in Example 1 above except that the compounds were administered intravenously 1-2 hours post infection.\nas §1"}, "[7]": {"test_system": "retroviruses (virions)", "test": "Direct inactivation of retroviruses (virions) in vitro (Example 10)", "format": "biochemical, Radiation Leukemia Virus", "conditions": "Table IX", "outline": "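RadLV-containing supernatants from chronically infected B10.T(6R) cells incubated 30 min on ice with hypericin or protohypericin. Virions then pelleted at 100,000×g for 1 h at 4° C and assayed for reverse transcriptase activity. EC50 is the micromolar concentration inhibiting 50% of virus.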"}}, "note": "Values joined by “and” are separate entries in the source; they are usually repeats but may differ in a detail not shown here. Equal entries are not always repeated.", "data": [{"smiles": "Cc1cc(O)c2c(=O)c3c(O)cc(O)c4c5c(O)cc(O)c6c(=O)c7c(O)cc(C)c8c1c2c(c34)c(c78)c65", "note": "[hypericin, Hypericin]", "values": [{"measurement": "activity across assays", "setting": "[1]", "result": "high degree of activity in a more than one assay"}, {"measurement": "Average CPM", "setting": "[2]; 0.4 micrograms", "result": "2,489 CPM"}, {"measurement": "Average percent inhibition", "setting": "[2]; 0.4 micrograms", "result": 99.4, "unit": "%"}, {"measurement": "CPM", "setting": "[2]; 0.4 micrograms", "result": "1,700 CPM and 3,278 CPM"}, {"measurement": "Average CPM", "setting": "[2]; 2 micrograms", "result": "9,986 CPM"}, {"measurement": "Average percent inhibition", "setting": "[2]; 2 micrograms", "result": 97.8, "unit": "%"}, {"measurement": "CPM", "setting": "[2]; 2 micrograms", "result": "14,474 CPM and 5,498 CPM"}, {"measurement": "Average CPM", "setting": "[2]; 10 micrograms", "result": "11,588 CPM"}, {"measurement": "Average percent inhibition", "setting": "[2]; 10 micrograms", "result": 97.4, "unit": "%"}, {"measurement": "CPM", "setting": "[2]; 10 micrograms", "result": "9,288 CPM and 13,888 CPM"}, {"measurement": "Average CPM", "setting": "[2]; 50 micrograms", "result": "31,818 CPM"}, {"measurement": "Average percent inhibition", "setting": "[2]; 50 micrograms", "result": 92.9, "unit": "%"}, {"measurement": "CPM", "setting": "[2]; 50 micrograms", "result": "33,948 CPM and 29,688 CPM"}, {"measurement": "Average CPM", "setting": "[2]; 100 micrograms", "result": "31,347 CPM"}, {"measurement": "Average percent inhibition", "setting": "[2]; 100 micrograms", "result": 93.0, "unit": "%"}, {"measurement": "CPM", "setting": "[2]; 100 micrograms", "result": "28,946 CPM and 33,748 CPM"}, {"measurement": "EC50", "setting": "[3]", "result": 200, "unit": "nM"}, {"measurement": "Average CPM", "setting": "[4]; 0.05 micrograms", "result": "3,067 CPM"}, {"measurement": "Average percent inhibition", "setting": "[4]; 0.05 micrograms", "result": 98.5, "unit": "%"}, {"measurement": "CPM", "setting": "[4]; 0.05 micrograms", "result": "2,882 CPM and 3,252 CPM"}, {"measurement": "Average CPM", "setting": "[4]; 0.1 micrograms", "result": "2,333 CPM"}, {"measurement": "Average percent inhibition", "setting": "[4]; 0.1 micrograms", "result": 98.9, "unit": "%"}, {"measurement": "CPM", "setting": "[4]; 0.1 micrograms", "result": "1,668 CPM and 2,998 CPM"}, {"measurement": "Average CPM", "setting": "[4]; 0.5 micrograms", "result": "3,428.5 CPM"}, {"measurement": "Average percent inhibition", "setting": "[4]; 0.5 micrograms", "result": 98.4, "unit": "%"}, {"measurement": "CPM", "setting": "[4]; 0.5 micrograms", "result": "3,190 CPM and 3,667 CPM"}, {"measurement": "Average CPM", "setting": "[4]; 1 microgram", "result": "4,097 CPM"}, {"measurement": "Average percent inhibition", "setting": "[4]; 1 microgram", "result": 98.0, "unit": "%"}, {"measurement": "CPM", "setting": "[4]; 1 microgram", "result": "4,504 CPM and 3,690 CPM"}, {"measurement": "Average CPM", "setting": "[4]; 5 micrograms", "result": "11,778 CPM"}, {"measurement": "Average percent inhibition", "setting": "[4]; 5 micrograms", "result": 94.4, "unit": "%"}, {"measurement": "CPM", "setting": "[4]; 5 micrograms", "result": "12,224 CPM and 11,332 CPM"}, {"measurement": "Average CPM", "setting": "[4]; 10 micrograms", "result": "9,007 CPM"}, {"measurement": "Average percent inhibition", "setting": "[4]; 10 micrograms", "result": 95.7, "unit": "%"}, {"measurement": "CPM", "setting": "[4]; 10 micrograms", "result": "8,912 CPM and 9,102 CPM"}, {"measurement": "Average CPM", "setting": "[4]; 50 micrograms", "result": "4,575 CPM"}, {"measurement": "Average percent inhibition", "setting": "[4]; 50 micrograms", "result": 97.8, "unit": "%"}, {"measurement": "CPM", "setting": "[4]; 50 micrograms", "result": "5,434 CPM and 3,716 CPM"}, {"measurement": "Average CPM", "setting": "[4]; 100 micrograms", "result": "1,830 CPM"}, {"measurement": "Average percent inhibition", "setting": "[4]; 100 micrograms", "result": 99.0, "unit": "%"}, {"measurement": "CPM", "setting": "[4]; 100 micrograms", "result": "1,502 CPM and 2,158 CPM"}, {"measurement": "antiviral activity vs frequency of treatment", "setting": "[5]; 10 micrograms every day for ten days", "result": "less effective than even a single 10-microgram dose"}, {"measurement": "antiviral activity vs frequency of treatment", "setting": "[5]; 10 micrograms once a week", "result": "as effective as the single 10-microgram dose"}, {"measurement": "antiviral activity vs dose", "setting": "[5]; single dose of ten micrograms per mouse", "result": "less effective than a single dose of 100 micrograms per mouse"}, {"measurement": "EC50", "setting": "[6]", "result": 120, "unit": "nM"}, {"measurement": "EC50", "setting": "[7]", "result": 60, "unit": "nM"}]}]}
